Results: PMC11012799 (Molecules, 2024)
Converted amounts (≈) assume the structure as drawn.

How the values were obtained:
L929 cells = test: cells; assay type: cell-based, murine; settings: Mus musculus, L929, 24 h, read-out: IC50 (µM) L929
Protocol: Considering our previous research and the literature reports on the antitumor activity of aziridine derivatives, aziridine phosphines (1–4) and aziridine phosphine oxides (5–9) were tested to investigate their potential anticancer activity. The in vitro effects on cell viability were assessed using the 3-(4,5-dimethylthiazol-2-yl)-2,5-diphenyltetrazolium bromide (MTT) assay on non-tumorigenic murine fibroblasts (L929) as well as two cancer cell lines: human cervical epithelioid carcinoma (HeLa) cells and endometrial adenocarcinoma (Ishikawa) cells.
Cell viability inhibition: The in vitro effects on cell viability were determined using the 3-(4,5-dimethylthiazol-2-yl)-2,5-diphenyltetrazolium bromide (MTT) assay on non-tumorigenic murine fibroblasts L929 (ATTC®—CCL-1) as well as two cancer cell lines: human cervical epithelioid carcinoma HeLa cells (ATTC®—CCL-2™) and endometrial adenocarcinoma Ishikawa cells (ECACC 99040201). Cells were cultured on 96-well microplates at a density of 1 × 10^4 cells/well following the international in Dulbecco’s Modified Eagle’s Medium (DMEM, Biowest) supplemented with 10% fetal bovine serum (FBS, Biowest, Nuaillé, France), 100 U/mL of penicillin, and 100 μg/mL of streptomycin (Biowest, Nuaillé, France). After overnight incubation at 37 °C and 5% CO2, the growth medium was removed and 100 μL of fresh media with two-fold dilutions of the tested compounds at concentrations of 3.125–100 μM were added. […] Untreated cells in medium were used as a positive control, while a clear culture medium served as a negative control.

[1] = system: clinical S. aureus strains; test: MIC, microdilution, 12 clinical S. aureus strains; assay type: cell-based, Staphylococcus aureus; settings: panel of 12 clinical isolates (naso-pharynx, ulcers/furuncles, bones), highest tested concentration 100 µM
Excerpt: A panel of reference bacteria, including Escherichia coli NCTC 8196, Staphylococcus aureus ATCC 6538, Klebsiella pneumoniae ATCC 13883, and Pseudomonas aeruginosa NCTC 6749, was used to assess the antibacterial activity of the nine tested aziridine phosphines (1–4) and aziridine phosphine oxides (5–9). The two-fold microdilution method, following EUCAST guidelines, was used to determine a minimal inhibitory concentration (MIC) of each compound, as presented in Table S1.
Antibacterial activity: The in vitro antibacterial activity of nine tested aziridine phosphines (1–4) and aziridine phosphine oxides (5–9) was evaluated against reference bacterial strains (E. coli NCTC 8196, S. aureus ATCC 6538, K. pneumoniae ATCC 13883, P. aeruginosa NCTC 6749) and 12 S. aureus clinical isolates, including two methicillin-resistant isolates (MRSA, D15 and D17) obtained from infected patients hospitalized at the Oncological Hospital in Lodz (Poland). All strains were kept frozen at −80 °C in Tryptic Soy Broth with 15% glycerol. The minimal inhibitory concentration (MIC) is defined as the lowest concentration of the compound that prevents visible growth of bacteria using the microdilution method followed the EUCAST guidelines. Each compound was added to 96-well microplates in two-fold dilutions at concentrations from 3.125 to 100 μM in Mueller–Hinton broth. […] Bacterial culture was added into wells at a density of 5 × 10^5 CFU mL^−1, and plates were incubated at 37 °C for 18 h. As a positive control, an untreated bacterial culture was used, and a clear culture medium served as a negative control. The optical density at OD600 was measured using the SpectraMax i3 Multi-Mode Platform (Molecular Devices, San Jose, CA, USA). Ciprofloxacin hydrochloride (CIP, Sigma-Aldrich, Darmstadt, Germany) was used as a reference antimicrobial drug.

HeLa cells = test: Cell cycle analysis (PI staining, flow cytometry); assay type: cell-based, human; settings: 24 h, concentration corresponding to IC50
Protocol: The MTT and LDH release assays provided evidence that aziridine phosphine oxides 5 and 7 inhibit cancer cell viability at concentrations equal to their respective IC50 values through antiproliferative mechanisms rather than by inducing cell death. It is expected that such observations will be reflected in cell cycle disturbances. To investigate which phase of the cell cycle is arrested, a cell cycle analysis was performed using propidium iodide (PI) staining. PI binds in proportion to the amount of DNA present in the cell. As a result of DNA replication, the cells in the S phase of the cell cycle contain more DNA than cells in the G1 phase. […] Before the exact analysis of the obtained results, we utilized a pre-gate to define the counted cells to be analyzed for cell cycle distribution. […] These findings confirmed the antiproliferative activity of these compounds.
Figure 4 Effects of 5 and 7 on cell cycle phase distribution in HeLa cells compared to untreated control. […] Data are expressed as mean ± SD of two independent experiments. Statistical significance in comparison with the untreated control, measured by two-way analysis of variance (ANOVA) followed by Bonferroni multiple comparison test, is indicated by asterisks: (*) p < 0.05, (**) p < 0.01, (***) p < 0.001.
Cell cycle analysis: The distribution of cell cycle phases was measured using flow cytometry and propidium iodide (PI) staining. The PI intercalates into the major groove of double-stranded DNA, producing a highly fluorescent signal when excited at 488 nm, with a broad emission centered around 600 nm. PI binds in proportion to the amount of DNA present in the cell. HeLa cells were seeded on 60 mm dishes at a density of 5 × 10^5 in 3 mL of Dulbecco’s Modified Eagle’s Medium F12 (DMEM-F12, Biowest, Nuaillé, France) supplemented with 10% fetal bovine serum (FBS, Biowest), 100 units/mL of penicillin G and 100 μg/mL of streptomycin (Biowest, Nuaillé, France) and incubated for 24 h at 37 °C and 5% CO2. Then, compounds 5 or 7 were added at a concentration corresponding to their IC50 values and the plate was incubated for the next 24 h. Untreated cells were used as a positive control. The cells were then harvested by trypsinization, suspended in culture medium (1 mL), centrifuged at 3600 rpm for 10 min, and washed twice with dPBS (Dulbecco’s phosphate-buffered saline, Cytogen–Polska Sp. z o.o, Zgierz, Poland). The cell sediment was resuspended in dPBS (600 μL) and fixed in 70% ice-cold ethanol. After storing the cells at 4 °C for 24 h, they were stained in PI staining solution (600 µL, 50 μg/mL of PI, and 100 μg/mL of RNAse A in dPBS) and incubated for 30 min at 37 °C in darkness. The cell cycle distribution was analyzed by flow cytometry using an LSRII (Becton Dickinson, Franklin Lakes, NJ, USA) instrument at 488 nm excitation and 535/617 emission wavelengths, and the cell cycle phase distribution from two independent experiments (10,000 cell counts/sample) was determined with the FlowJo 7.6.1 software (FlowJo, LLC, Ashland, OR, USA) using a built-in cell cycle analysis module (Watson pragmatic algorithm).

CC(C)[C@@H]1CN1c1ccccc1P(=O)(c1ccccc1)c1ccccc1 [Compound 5]
IC50 (L929 cells): 10.6 ± 3.2 µM | MIC ([1]; Staphylococcus aureus): 100 µM (≈ 36.1 µg/mL) | MIC [1]: 100 µM (≈ 36.1 µg/mL) | cell cycle arrest (phase distribution) (HeLa cells): significant cell arrest in the S phase | number of cells in the sub-G1 phase (indicative of apoptosis) (HeLa cells): significantly increased | stage of S-phase arrest (histograms of cell cycle distribution) (HeLa cells): cell arrest mainly in the early stages of the S phase

CC(C)C[C@H]1CN1c1ccccc1P(=O)(c1ccccc1)c1ccccc1 [Compound 7]
IC50 (L929 cells): 17.5 ± 2.1 µM | MIC ([1]; Staphylococcus aureus): 100 µM (≈ 37.5 µg/mL) | MIC [1]: 100 µM (≈ 37.5 µg/mL) | cell cycle arrest (phase distribution) (HeLa cells): significant cell arrest in the S phase | number of cells in the sub-G1 phase (indicative of apoptosis) (HeLa cells): significantly increased | stage of S-phase arrest (histograms of cell cycle distribution) (HeLa cells): more effective in the late S phase
